Measurements as given in ChEMBL document CHEMBL4359843, “Linear and Rationally Designed Stapled Peptides Abrogate TLR4 Pathway and Relieve Inflammatory Symptoms in Rheumatoid Arthritis Rat Model” (J Med Chem, 2019).
Activity calls are given as the source filed them. The rule behind the calls is not given here. Where a SMILES comes first, the peptide text is derived from it. Bridges are numbered along the chain shown (N, C = ends).

Key:
[1] = target: T1, Toll-like receptor 4 (Homo sapiens, UniProt O00206); test: Binding affinity to recombinant human TLR4 using phage displayed compound by Phage-ELISA
T1 sequence (O00206 whole entry): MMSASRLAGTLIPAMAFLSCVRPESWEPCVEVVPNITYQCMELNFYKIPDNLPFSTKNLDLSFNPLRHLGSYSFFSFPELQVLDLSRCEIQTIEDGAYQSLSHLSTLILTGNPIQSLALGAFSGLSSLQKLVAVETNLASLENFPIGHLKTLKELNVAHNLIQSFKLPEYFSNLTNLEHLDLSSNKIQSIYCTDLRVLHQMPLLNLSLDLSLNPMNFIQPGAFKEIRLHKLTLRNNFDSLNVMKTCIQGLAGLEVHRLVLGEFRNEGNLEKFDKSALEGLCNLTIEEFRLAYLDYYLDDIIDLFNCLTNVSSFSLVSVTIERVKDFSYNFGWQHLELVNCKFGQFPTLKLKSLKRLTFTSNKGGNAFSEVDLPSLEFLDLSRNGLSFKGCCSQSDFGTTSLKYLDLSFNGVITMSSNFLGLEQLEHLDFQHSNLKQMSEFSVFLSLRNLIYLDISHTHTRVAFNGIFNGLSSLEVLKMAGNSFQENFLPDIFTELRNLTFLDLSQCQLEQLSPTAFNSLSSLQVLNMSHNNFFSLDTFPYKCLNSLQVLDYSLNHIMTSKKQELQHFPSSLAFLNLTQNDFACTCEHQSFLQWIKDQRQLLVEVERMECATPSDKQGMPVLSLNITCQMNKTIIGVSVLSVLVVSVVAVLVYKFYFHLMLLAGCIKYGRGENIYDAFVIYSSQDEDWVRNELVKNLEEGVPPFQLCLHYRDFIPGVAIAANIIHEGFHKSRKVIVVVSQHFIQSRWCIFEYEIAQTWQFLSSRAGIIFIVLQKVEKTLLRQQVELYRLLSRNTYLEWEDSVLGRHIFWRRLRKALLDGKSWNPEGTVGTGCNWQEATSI

[2] = target: T2, Toll-like receptor 4 (Mus musculus) (UniProt Q9QUK6); test: Antagonist activity at TLR4 in mouse RAW264.7 cells assessed as reduction in LPS-induced TNFalpha secretion after 24 hrs by ELISA; type: cell-based
T2 sequence (whole entry): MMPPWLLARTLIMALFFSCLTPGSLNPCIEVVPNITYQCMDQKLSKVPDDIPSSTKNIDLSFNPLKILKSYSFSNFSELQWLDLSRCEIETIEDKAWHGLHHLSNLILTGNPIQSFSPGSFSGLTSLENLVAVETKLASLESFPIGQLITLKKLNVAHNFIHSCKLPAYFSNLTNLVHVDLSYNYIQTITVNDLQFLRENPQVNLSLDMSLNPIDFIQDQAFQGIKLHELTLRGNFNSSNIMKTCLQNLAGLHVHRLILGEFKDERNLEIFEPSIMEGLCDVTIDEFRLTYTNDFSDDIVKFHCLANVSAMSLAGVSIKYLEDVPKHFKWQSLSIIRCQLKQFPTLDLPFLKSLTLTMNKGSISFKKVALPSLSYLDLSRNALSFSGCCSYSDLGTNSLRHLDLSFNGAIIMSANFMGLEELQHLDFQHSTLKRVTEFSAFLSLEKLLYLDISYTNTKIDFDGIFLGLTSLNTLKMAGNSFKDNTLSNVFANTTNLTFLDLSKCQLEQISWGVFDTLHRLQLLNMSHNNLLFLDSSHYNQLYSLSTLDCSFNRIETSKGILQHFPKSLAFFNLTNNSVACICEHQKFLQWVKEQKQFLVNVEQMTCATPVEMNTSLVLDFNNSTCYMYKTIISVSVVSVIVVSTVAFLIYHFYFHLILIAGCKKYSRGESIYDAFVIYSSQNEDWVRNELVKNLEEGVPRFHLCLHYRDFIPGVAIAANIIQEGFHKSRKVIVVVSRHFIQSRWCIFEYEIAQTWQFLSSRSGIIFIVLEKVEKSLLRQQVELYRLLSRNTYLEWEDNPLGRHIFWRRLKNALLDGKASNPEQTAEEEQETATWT

[3] = target: T2, Toll-like receptor 4 (Mus musculus); test: Antagonist activity at TLR4 in mouse RAW264.7 cells assessed as reduction in LPS-induced IL-6 secretion after 24 hrs by ELISA; type: cell-based
[4] = target: T1, Toll-like receptor 4; test: Binding affinity to recombinant human TLR4 by surface plasmon resonance analysis
[5] = tested on: RAW264.7; test: Cytotoxicity against mouse RAW264.7 cells assessed as reduction in cell viability at 5 to 50 uM after 24 hrs by MTT assay; type: cell-based; conditions: raw264.7, 24 h
[6] = target: T2, Toll-like receptor 4 (Mus musculus); test: Antagonist activity at TLR4 in mouse RAW264.7 cells assessed as reduction in LPS-induced extracellular NO secretion at 5 to 50 uM by spectrophotometric method; type: cell-based
[7] = target: T1, Toll-like receptor 4; test: Antagonist activity at TLR4 in human THP1 cells assessed as reduction in LPS-induced IkappaBalpha degradation at 50 uM after 15 to 30 mins by Western blot analysis; type: cell-based
[8] = tested on: Rattus norvegicus; test: Antiarthritic activity in Lewis rat model of complete Freund's adjuvant-induced arthritis assessed as reduction in TNFalpha expression in synovial tissues at 1 nmol/g administered intra-articularly into knee joint measured at 1 week by TNFalpha staining based immunohistochemical analysis; type: functional, organism-based
[9] = target: T1, Toll-like receptor 4; test: Antagonist activity at TLR4 (unknown origin)
[10] = target: T1, Toll-like receptor 4; test: Antagonist activity at TLR4 (unknown origin) assessed as inhibition of proinflammatory cytokines
[11] = target: T1, Toll-like receptor 4; test: Binding affinity to recombinant human TLR4 assessed as dissociation rate constant up to 200 uM by surface plasmon resonance analysis
[12] = target: T2, Toll-like receptor 4 (Mus musculus); test: Antagonist activity at TLR4 in mouse RAW264.7 cells assessed as reduction in LPS-induced ATF3 activation at 80 uM after 120 to 240 mins by Western blot analysis; type: cell-based
[13] = target: T2, Toll-like receptor 4 (Mus musculus); test: Antagonist activity at TLR4 in mouse RAW264.7 cells assessed as reduction in LPS-induced ERK phosphorylation at 80 uM after 15 to 30 mins by Western blot analysis; type: cell-based
[14] = target: T2, Toll-like receptor 4 (Mus musculus); test: Antagonist activity at TLR4 in mouse RAW264.7 cells assessed as reduction in LPS-induced p38 phosphorylation at 80 uM after 15 to 30 mins by Western blot analysis; type: cell-based
[15] = target: T2, Toll-like receptor 4 (Mus musculus); test: Antagonist activity at TLR4 in mouse RAW264.7 cells assessed as reduction in LPS-induced IFNbeta secretion after 24 hrs by ELISA; type: cell-based
[16] = target: TLR2/TLR6 (Homo sapiens) (UniProt O60603+Q9Y2C9); test: Antagonist activity at TLR2/6 in human PBMC cells assessed as reduction in FSL-1-induced IL6 secretion at 20 to 80 uM after 24 hrs by ELISA; type: cell-based
[17] = target: Toll-like receptor 1/2 (Homo sapiens) (UniProt O60603+Q15399); test: Antagonist activity at TLR2/1 in human PBMC cells assessed as reduction in PAM3CSK4-induced TNFalpha secretion at 20 to 80 uM after 24 hrs by ELISA; type: cell-based
[18] = target: T1, Toll-like receptor 4; test: Antagonist activity at TLR4 in human PBMC cells assessed as reduction in LPS-induced IkappaBalpha degradation at 80 uM after 15 to 30 mins by Western blot analysis; type: cell-based
[19] = tested on: Mus musculus; test: Antiinflammatory activity in C57BL/6J mouse assessed as reduction in LPS-induced IL-12p40 secretion at 70 nmol/g, ip pretreated for 1 hr followed by LPS challenge and measured after 2 hrs by ELISA; type: functional, organism-based
[20] = target: T2, Toll-like receptor 4 (Mus musculus); test: Binding affinity to TLR4 in mouse RAW264.7 cells assessed as colocalization of TLR4 in plasma membrane at 40 uM preincubated for 1 hr followed by LPS challenge and measured after 30 mins using FITC-labelled compound by Alexafluor-488/Hoechst 33258 staining based immunofluorescence confocal microscopic method; type: cell-based

Compound	Activity [1]	Activity [2]	Activity [3]	Activity [4]	Activity [5]	Activity [6]	Activity [7]	Activity [8]	IC50 [9] [µM]	IC50 [10] [µM]	koff [11] [s⁻¹]	Activity [12]	Activity [13]	Activity [14]	Activity [15]	Activity [16]	Activity [17]	Activity [18]	Activity [19]	Activity [20]
CC[C@H](C)[C@@H]1NC(=O)[C@H](Cc2c[nH]c3ccccc23)NC(=O)[C@H](Cc2c[nH]c3ccccc23)NC(=O)[C@@H](NC(=O)[C@H](CO)NC(=O)[C@H](Cc2ccccc2)NC(=O)[C@@H](NC(=O)CNC(=O)[C@@H](N)CC(C)C)C(C)C)CC(=O)NCCCC[C@@H](C(=O)N[C@@H](CC(C)C)C(=O)N[C@H](C(=O)O)C(C)C)NC1=O (H-LGVFSDWWIKLV-OH; lactam 6-10)	Active	Dose-dependent effect	Dose-dependent effect	Dose-dependent effect	Non-Toxic	Active	Active	Active	25	5	0.0014									
H-LGVFSSWWIKLV-OH	Active	Dose-dependent effect	Dose-dependent effect	Dose-dependent effect					40	20	0.0113	Active	Active	Active	Dose-dependent effect	inactive	inactive	Active	Active	Active
